Test results as given in patent US20110178023A1, “Use Of SCO-Spondin Peptides For Inhibiting Or Preventing Neuronal Apoptosis Mediated By Cell Death Receptor Ligands” (Institut National de la Sante et de la Recherche Medicale …, priority 2007, published 2011).

Tested on: embryonic rat hippocampal cells
Experiment: Apoptosis detection (TUNEL, DAPI counter-staining) in treated hippocampal cell cultures
Type: cell-based
Conditions: for apoptosis induced by cell death receptor pathway (Fas, TRAIL-R) in hippocampal cells: TSR peptide added to culture medium, 7 days of treatment; for number of apoptotic cells with death receptor ligand alone: FasL 20 ng/mL or TRAIL 80 ng/mL alone
Experimental: FIG. 2: Histogramm representing the percentage of apoptotic cells outside the clusters compared with the total number of cells, data provided by only one experiment realized in triplicate. In each assay, apoptotic labelling with TUNEL method were counted on 4 photos aleatory on each slide, and having always at least 1 neurosphere. The cultures were treated (cases TSR, FasL, TSR+FasL, TRAIL, TSR+TRAIL, FasL+TRAIL and TSR+FasL+TRAIL) or not treated (control, c) during 7 days with a TSR peptide concentration of 375 μg/mL and/or 20 ng/mL of FasL and/or 80 ng/mL of TRAIL).
Cultures of hippocampal cells from foetal rats: Cells were obtained from E18 rat brains. Tissues were removed in dissection medium (Hank's Balanced Salt Solution, HBSS plus antibiotics). Composition of dissection medium HBSS plus antibiotics): • potassium chloride (KCl): 400 mg/L • potassium phosphate (KH2PO4): 60 mg/L • sodium bicarbonate (NaHCO3): 350 mg/L • sodium chloride (NaCl): 8000 mg/L • sodium phosphate (Na2HPO4): 48 mg/L • D-glucose: 1000 mg/L • penicillin-streptomycin: 100 units/mL
Meninges were removed from the embryos brains and hippocampus was dissected in a sterile petri dish in HBSS plus antibiotic medium. After centrifugation cells were ressuspended in culture medium MEM with Earl Salts supplemented with B27, EGF, FGF-2 and antibiotics. The composition of the culture medium was the following: • L-arginine hydrochloride: […] • L-cystine: 24 mg/L • L-glutamine: 292 mg/L • L-histidine-H2O Hydrochloride: 42 mg/L • L-isoleucine: 52 mg/L • L-leucine 52 mg/L • L-lysine Hydrochloride: 73 mg/l, • L-methionine: 15 mg/L • L-phenylalanine: 32 mg/L • L-threonine: 48 mg/L • L-tryptophane: 10 mg/L • L-tyrosine: 36 mg/L • L-valine: 46 mg/L • choline Chloride: 1 mg/L • D-calcium pantothenate: 1 mg/L • folic acid: 1 mg/L • I-inositol: 2 mg/L • Niacinamide: 1 mg/L • pyridoxal Hydrochloride: 1 mg/L • Riboflavine: 0.1 mg/L • thiamine Hydrochloride: 1 mg/L • calcium chloride (CaCl2-2H2O): 264 mg/L • magnesium sulfate (MgSO4-7H2O): 200 mg/L • potassium chloride (KCl): 400 mg/L • sodium bicarbonate (NaHCO3): 2200 mg/L • sodium chloride (NaCl): 6800 mg/L • sodium phosphate (NaH2PO4-2H2O): 158 mg/L • D-glucose: 4500 mg/L • phenol red: 10 mg/L • Sodium pyruvate: 110.04 mg/L • B27 medium (Invitrogen) 50×: 2% v/v • EGF: 20 μg/L • FGF-2: 20 μg/L • Penicillin-streptomycin: 100 units/mL
Hippocampus fragments were dissociated mechanically with 1 syringe 1 ml and 1 needle 25G and added with 1 mL of culture medium then centrifuged at 1200 rpm for 10 min. The supernatant is then removed and the cell pellet is resupended in 1 mL of culture medium. Other mechanic dissociation was performed with a seringe 1 mL and a needle 25G. Cell count was determined with Malassez hemocytometer and viability of cells was evaluated by counting the cells which have not absorbed the Trypan blue. Then cells are seeded in 48-well plates, at 40 000 cells by well in 500 μL of culture medium, on culture dishes precovered with collagen.
Preparation of precovered dishes with collagen: After an incubation of 10 min in absolute ethanol, the glass dishes were sterilized by heating 2H at 120° C. Sterilized glass dishes (10 mm diameter) was put on culture well and covered with a 0.1 mg/mL collagen calf skin solution. After 1 hr incubation at 37° C., the excess of solution is removed and the plate is maintained one night under hood of culture in order to let dry the plates. Before use, the wells were washed twice with 200 μL sterile distillated water.
Treatment of embryonic rat hippocampal cells: After 5 days of culture, cells were cultured in medium without growth factors (MEM with Earl salts, B27 and antibiotics) with different conditions of treatment combinating TSR peptide (WSGWSSCSRSCG—SEQ ID No 8) (375 μg/mL), FasL (20 ng/mL) and TRAIL (80 ng/mL). […]

Molecule | number of apoptotic cells, apoptosis induced by FasL (TSR peptide 375 μg/mL + FasL 20 ng/mL, 7 days, compared to FasL culture, FIG. 2) | number of apoptotic cells, apoptosis induced by TRAIL (TSR peptide 375 μg/mL + TRAIL 80 ng/mL, 7 days, compared to TRAIL culture, FIG. 2) | level of apoptosis (final statement, presumably FasL+TRAIL culture) (TSR peptide 375 μg/mL, 7 days, FIG. 2, inducer not given) | apoptosis induced by cell death receptor pathway (Fas, TRAIL-R) in hippocampal cells | apoptosis induced by cell death receptor pathway (Fas, TRAIL-R) in hippocampal cells (listed as peptide TSR) | effect on basal apoptosis (number of apoptotic cells) (TSR peptide alone 375 μg/mL, 7 days, compared to control cultures, FIG. 2) | number of apoptotic cells with death receptor ligand alone (7 days, FIG. 2)
WSGWSSCSRSCG [TSR peptide, peptide derived from the TSR (thrombospondin type 1 units) of SCO-spondin] | decreased | decreased in the presence of TSR peptide to a level comparable to control cells | restores the basal level of apoptosis | inhibits the apoptosis | decreased | no effect | 
TRAIL: TNF-related apoptosis inducing ligand, cell death receptor ligand used to induce apoptosis (protein, UniProt P50591 1-281, looked up) Tumor necrosis factor ligand …: MAMMEVQGGPSLGQTCVLIVIFTVLLQSLCVAVTYVYFTNELKQMQDKYSKSGIACFLKEDDSYWDPNDEESMNSPCWQVKWQLRQLVRKMILRTSEETISTVQEKQQNISPLVRERGPQRVAAHITGTRGRSNTLSSPNSKNEKALGRKINSWESSRSGHSFLSNLHLRNGELVIHEKGFYYIYSQTYFRFQEEIKENTKNDKQMVQYIYKYTSYPDPILLMKSARNSCWSKDAEYGLYSIYQGGIFELKENDRIFVSVTNEHLIDMDHEASFFGAFLVG |  |  |  |  |  |  | more important than in the presence of FasL
FasL: Fas ligand, cell death receptor ligand of the TNF superfamily used to induce apoptosis (protein, UniProt P48023 130-281, looked up) Tumor necrosis factor ligand …: QIGHPSPPPEKKELRKVAHLTGKSNSRSMPLEWEDTYGIVLLSGVKYKKGGLVINETGLYFVYSKVYFRGQSCNNLPLSHKVYMRNSKYPQDLVMMEGKMMSYCTTGQMWARSSYLGAVFNLTSADHLYVNVSELSLVNFEESQTFFGLYKL |  |  |  |  |  |  | increased
